ChEMBL document CHEMBL1145498, “A systematic interaction map of validated kinase inhibitors with Ser/Thr kinases” (Proc Natl Acad Sci U S A, 2007)

Key:
[1] = molecular target: Serine/threonine-protein kinase OSR1 (Homo sapiens) (UniProt O95747)
[2] = molecular target: Calcium/calmodulin-dependent protein kinase type 1G (Homo sapiens) (UniProt Q96NX5)
[3] = molecular target: T1, 3-phosphoinositide-dependent protein kinase 1 (Homo sapiens) (UniProt O15530)
T1 sequence (whole entry): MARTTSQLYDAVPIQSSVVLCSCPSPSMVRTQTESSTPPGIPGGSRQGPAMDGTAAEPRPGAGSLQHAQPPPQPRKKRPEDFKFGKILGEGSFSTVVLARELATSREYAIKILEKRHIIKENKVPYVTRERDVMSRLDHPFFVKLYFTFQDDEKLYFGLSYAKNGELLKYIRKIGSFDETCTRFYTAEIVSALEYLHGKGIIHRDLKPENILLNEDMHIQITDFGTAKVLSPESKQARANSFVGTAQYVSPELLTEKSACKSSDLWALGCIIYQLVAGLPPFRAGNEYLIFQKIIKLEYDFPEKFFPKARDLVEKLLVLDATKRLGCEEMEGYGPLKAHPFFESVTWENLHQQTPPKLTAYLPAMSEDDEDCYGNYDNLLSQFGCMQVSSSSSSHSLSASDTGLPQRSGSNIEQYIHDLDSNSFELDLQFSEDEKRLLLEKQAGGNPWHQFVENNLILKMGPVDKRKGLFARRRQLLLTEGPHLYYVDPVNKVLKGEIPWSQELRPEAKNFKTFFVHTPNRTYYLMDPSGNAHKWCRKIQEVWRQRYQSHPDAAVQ

[4] = molecular target: Casein kinase I isoform gamma-3 (Homo sapiens) (UniProt Q9Y6M4)
Casein kinase I isoform gamma-3 (Homo sapiens), sequence (Q9Y6M4 whole entry, looked up, canonical isoform): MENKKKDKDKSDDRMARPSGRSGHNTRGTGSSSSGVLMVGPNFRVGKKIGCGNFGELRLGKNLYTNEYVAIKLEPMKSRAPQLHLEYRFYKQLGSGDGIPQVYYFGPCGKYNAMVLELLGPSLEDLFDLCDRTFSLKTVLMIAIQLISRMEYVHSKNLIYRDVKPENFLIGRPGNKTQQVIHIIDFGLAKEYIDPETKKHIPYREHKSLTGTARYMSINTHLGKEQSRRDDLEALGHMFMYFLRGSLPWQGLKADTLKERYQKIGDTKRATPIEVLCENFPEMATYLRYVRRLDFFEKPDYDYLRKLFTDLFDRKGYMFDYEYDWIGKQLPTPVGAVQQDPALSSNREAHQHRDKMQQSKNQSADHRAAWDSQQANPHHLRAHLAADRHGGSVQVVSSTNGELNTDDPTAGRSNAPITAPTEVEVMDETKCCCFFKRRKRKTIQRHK

[5] = molecular target: T2, Serine/threonine-protein kinase 4 (Homo sapiens) (UniProt Q13043)
T2 sequence (whole entry): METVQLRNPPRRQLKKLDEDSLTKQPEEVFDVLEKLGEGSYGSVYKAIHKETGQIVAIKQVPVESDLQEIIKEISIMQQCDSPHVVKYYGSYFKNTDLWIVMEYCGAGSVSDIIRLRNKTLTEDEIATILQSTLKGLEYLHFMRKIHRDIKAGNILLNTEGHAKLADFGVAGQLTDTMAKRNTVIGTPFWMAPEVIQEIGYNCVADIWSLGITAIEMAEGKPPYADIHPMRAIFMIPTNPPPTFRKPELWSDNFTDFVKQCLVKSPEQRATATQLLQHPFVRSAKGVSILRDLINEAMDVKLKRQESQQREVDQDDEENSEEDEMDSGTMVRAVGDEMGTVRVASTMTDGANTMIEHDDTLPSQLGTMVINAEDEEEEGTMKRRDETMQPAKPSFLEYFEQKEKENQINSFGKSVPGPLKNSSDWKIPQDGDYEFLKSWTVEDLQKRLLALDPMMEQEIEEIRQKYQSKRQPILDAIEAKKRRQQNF

[6] = molecular target: Cyclin-dependent kinase-like 1 (Homo sapiens) (UniProt Q00532)
Cyclin-dependent kinase-like 1 (Homo sapiens), sequence (Q00532 whole entry): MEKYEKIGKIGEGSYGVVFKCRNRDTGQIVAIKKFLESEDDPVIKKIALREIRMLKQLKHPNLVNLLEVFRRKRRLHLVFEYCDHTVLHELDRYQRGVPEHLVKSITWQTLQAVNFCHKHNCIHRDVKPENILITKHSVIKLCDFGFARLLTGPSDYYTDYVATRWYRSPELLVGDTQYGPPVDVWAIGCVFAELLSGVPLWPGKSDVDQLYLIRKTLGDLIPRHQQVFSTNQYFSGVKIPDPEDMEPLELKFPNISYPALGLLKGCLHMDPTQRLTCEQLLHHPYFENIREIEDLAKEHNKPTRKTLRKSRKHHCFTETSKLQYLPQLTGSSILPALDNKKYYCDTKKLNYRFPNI

[7] = molecular target: Serine/threonine-protein kinase PAK 5 (Homo sapiens) (UniProt Q9P286)
[8] = molecular target: T3, Calcium/calmodulin-dependent protein kinase type IV (Homo sapiens) (UniProt Q16566)
T3 sequence (whole entry): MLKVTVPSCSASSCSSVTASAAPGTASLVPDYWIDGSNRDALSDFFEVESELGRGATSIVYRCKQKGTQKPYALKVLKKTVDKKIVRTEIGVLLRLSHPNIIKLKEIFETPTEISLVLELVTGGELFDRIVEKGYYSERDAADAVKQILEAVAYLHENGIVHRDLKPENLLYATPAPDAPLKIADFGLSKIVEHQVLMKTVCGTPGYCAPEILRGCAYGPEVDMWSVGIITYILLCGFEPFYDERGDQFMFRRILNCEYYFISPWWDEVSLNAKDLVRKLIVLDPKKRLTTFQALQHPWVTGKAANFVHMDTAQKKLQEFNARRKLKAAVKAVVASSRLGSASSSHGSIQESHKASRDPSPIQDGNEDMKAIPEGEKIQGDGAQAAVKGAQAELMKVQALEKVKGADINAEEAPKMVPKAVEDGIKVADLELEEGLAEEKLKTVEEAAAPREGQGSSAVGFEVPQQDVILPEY

[9] = molecular target: Serine/threonine-protein kinase PAK 4 (Homo sapiens) (UniProt O96013)
Serine/threonine-protein kinase PAK 4 (Homo sapiens), sequence (O96013 whole entry, looked up): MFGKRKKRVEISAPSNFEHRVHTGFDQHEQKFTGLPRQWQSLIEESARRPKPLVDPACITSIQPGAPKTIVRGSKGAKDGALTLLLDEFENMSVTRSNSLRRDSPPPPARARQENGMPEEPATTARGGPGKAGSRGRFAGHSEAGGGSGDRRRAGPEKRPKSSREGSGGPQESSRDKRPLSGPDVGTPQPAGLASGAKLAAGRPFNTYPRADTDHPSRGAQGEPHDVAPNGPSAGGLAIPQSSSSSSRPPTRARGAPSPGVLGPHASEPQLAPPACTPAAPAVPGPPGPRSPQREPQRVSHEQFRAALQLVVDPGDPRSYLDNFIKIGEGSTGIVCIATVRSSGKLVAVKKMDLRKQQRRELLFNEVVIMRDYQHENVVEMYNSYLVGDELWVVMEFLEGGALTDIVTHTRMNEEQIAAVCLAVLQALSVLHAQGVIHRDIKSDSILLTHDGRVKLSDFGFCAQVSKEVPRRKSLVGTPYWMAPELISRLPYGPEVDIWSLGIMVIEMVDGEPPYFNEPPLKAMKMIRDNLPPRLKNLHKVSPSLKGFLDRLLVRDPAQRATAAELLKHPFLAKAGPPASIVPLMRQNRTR

[10] = molecular target: Dual specificity protein kinase CLK1 (Homo sapiens) (UniProt P49759)
[11] = molecular target: T4, Myotonin-protein kinase (Homo sapiens) (UniProt Q09013)
T4 sequence (whole entry): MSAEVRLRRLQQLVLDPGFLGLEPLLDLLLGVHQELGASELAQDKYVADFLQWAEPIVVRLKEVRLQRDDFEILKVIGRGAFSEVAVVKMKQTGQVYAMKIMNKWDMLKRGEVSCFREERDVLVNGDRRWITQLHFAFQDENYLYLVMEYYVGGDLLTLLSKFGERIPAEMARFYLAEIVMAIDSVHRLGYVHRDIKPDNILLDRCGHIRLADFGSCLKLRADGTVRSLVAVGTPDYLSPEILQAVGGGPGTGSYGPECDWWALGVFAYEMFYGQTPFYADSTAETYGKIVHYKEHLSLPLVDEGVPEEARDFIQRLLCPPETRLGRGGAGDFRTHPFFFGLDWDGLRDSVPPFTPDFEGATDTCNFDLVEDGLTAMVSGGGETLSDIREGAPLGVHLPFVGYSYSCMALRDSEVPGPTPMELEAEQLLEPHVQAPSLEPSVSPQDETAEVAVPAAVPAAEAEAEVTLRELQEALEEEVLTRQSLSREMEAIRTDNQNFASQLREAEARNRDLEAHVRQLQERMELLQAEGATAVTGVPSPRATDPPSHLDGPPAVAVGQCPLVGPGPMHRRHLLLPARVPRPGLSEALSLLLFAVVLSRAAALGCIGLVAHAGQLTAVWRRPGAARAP

[12] = molecular target: Serine/threonine-protein kinase pim-1 (Homo sapiens) (UniProt P11309)
Serine/threonine-protein kinase pim-1 (Homo sapiens), sequence (P11309 whole entry, looked up): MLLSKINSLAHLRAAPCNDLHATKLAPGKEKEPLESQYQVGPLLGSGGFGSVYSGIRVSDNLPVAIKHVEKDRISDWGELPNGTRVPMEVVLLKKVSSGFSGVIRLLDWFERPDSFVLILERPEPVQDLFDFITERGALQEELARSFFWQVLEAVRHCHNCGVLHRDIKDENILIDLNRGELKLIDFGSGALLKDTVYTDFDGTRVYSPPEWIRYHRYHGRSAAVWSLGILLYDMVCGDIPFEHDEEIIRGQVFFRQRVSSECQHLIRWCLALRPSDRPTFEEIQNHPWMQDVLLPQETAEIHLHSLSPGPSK

[13] = molecular target: Tyrosine-protein kinase JAK1 (Homo sapiens) (UniProt P23458)
Tyrosine-protein kinase JAK1 (Homo sapiens), sequence (P23458 whole entry): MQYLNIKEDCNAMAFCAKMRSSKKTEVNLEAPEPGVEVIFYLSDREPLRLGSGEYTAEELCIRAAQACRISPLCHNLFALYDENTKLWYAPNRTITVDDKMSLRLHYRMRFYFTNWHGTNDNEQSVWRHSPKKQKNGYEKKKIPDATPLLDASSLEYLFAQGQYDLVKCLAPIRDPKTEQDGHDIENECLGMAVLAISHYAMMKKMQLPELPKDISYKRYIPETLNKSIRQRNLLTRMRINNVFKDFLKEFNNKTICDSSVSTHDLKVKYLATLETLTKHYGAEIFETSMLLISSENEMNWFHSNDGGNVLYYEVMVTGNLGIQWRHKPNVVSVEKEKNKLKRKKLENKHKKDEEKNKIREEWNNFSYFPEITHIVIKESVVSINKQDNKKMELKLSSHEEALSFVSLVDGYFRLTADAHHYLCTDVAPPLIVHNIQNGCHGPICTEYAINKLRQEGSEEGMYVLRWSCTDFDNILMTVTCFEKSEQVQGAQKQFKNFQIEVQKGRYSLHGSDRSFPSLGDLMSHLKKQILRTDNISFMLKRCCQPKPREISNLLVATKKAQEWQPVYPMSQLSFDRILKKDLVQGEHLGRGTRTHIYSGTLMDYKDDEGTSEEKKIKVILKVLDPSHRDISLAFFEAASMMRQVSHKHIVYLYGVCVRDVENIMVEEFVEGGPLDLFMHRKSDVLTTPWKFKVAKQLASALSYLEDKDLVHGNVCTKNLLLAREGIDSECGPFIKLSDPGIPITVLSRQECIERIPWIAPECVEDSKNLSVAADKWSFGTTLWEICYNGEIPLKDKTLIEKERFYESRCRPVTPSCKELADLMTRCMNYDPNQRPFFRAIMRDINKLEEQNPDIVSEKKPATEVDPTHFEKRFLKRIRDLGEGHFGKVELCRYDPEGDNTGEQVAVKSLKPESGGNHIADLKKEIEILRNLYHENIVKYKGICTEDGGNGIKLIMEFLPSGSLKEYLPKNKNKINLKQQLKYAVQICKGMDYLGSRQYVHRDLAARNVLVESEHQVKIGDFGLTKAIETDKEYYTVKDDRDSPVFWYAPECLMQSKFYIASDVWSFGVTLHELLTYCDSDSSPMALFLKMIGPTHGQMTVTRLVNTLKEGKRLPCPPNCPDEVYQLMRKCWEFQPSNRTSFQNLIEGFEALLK

[14] = molecular target: Ribosomal protein S6 kinase alpha-3 (Homo sapiens) (UniProt P51812)
Ribosomal protein S6 kinase alpha-3 (Homo sapiens), sequence (P51812 whole entry): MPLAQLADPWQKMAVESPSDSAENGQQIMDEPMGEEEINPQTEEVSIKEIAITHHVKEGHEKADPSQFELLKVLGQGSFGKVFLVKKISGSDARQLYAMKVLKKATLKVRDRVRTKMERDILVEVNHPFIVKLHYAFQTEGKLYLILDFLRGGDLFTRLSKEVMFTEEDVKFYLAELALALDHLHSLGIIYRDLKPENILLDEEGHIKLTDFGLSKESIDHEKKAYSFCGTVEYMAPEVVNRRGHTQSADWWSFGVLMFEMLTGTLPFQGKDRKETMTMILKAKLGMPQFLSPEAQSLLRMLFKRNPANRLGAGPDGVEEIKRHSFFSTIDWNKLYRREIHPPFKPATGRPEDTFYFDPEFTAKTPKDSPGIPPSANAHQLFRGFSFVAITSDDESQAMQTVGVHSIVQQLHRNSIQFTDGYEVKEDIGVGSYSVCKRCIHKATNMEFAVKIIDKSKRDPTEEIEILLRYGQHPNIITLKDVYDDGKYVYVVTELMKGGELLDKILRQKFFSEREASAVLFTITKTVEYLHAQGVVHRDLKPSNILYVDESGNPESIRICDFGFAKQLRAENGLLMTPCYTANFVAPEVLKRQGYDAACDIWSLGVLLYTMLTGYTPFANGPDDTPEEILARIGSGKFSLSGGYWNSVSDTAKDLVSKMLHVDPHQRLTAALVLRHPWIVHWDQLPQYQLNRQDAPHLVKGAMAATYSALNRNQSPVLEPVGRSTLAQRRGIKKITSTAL

Serine/threonine-protein kinase OSR1 (Homo sapiens), sequence (O95747 2-527 limits assumed): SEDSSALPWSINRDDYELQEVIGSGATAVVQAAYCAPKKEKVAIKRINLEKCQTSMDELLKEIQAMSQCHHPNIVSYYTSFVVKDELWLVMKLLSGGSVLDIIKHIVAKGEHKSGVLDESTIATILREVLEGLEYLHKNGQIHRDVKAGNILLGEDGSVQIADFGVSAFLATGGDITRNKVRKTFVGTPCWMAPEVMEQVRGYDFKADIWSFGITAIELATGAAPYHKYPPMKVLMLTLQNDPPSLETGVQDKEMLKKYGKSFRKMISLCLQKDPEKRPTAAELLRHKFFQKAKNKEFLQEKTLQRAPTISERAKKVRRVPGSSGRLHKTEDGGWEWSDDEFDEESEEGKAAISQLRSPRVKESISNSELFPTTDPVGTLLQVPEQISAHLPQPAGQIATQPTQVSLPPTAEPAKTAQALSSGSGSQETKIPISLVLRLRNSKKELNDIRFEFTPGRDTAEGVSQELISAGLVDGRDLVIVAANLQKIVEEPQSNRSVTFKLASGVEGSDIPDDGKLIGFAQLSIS
Calcium/calmodulin-dependent protein kinase type 1G (Homo sapiens), sequence (Q96NX5 whole entry): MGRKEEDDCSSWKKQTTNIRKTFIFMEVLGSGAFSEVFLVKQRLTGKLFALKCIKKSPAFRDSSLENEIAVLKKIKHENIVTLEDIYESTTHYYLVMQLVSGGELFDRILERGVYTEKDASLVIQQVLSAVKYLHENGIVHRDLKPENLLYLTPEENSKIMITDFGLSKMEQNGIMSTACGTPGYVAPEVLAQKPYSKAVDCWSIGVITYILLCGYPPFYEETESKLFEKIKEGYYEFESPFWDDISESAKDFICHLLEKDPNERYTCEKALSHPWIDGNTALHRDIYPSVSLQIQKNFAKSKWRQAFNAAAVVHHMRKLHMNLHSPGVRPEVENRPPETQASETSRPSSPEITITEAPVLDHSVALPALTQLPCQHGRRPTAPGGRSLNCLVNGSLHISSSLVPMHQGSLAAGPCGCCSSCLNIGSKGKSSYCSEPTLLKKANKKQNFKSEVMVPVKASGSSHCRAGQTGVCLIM

SMILES	ΔTm [1]	ΔTm [2]	ΔTm [3]	ΔTm [4]	ΔTm [5]	ΔTm [6]	ΔTm [7]	ΔTm [8]	ΔTm [9]	ΔTm [10]	ΔTm [11]	ΔTm [12]	ΔTm [13]	ΔTm [14]
N#C/C(=C1/Nc2ccccc2S1)c1ccnc(NCCc2cccnc2)n1	1.4 °C	2.3 °C	-0.1 °C	3.4 °C	1.2 °C	3.1 °C	1.8 °C	1.4 °C	1.3 °C	5.9 °C	6 °C	10 °C	7.5 °C	–
COc1cc2ncnc(Nc3cccc(O)c3)c2cc1OC	0.2 °C	–	0 °C	0.8 °C	1.6 °C	-0.2 °C	0.5 °C	0 °C	1 °C	3.8 °C	0.9 °C	0 °C	2.1 °C	0.9 °C
CCN(CC)CCNC(=O)c1c(C)[nH]c(/C=C2\C(=O)Nc3ccc(F)cc32)c1C	3 °C	–	2.9 °C	–	0.5 °C	0.5 °C	1.7 °C	6 °C	3.3 °C	5.1 °C	2.7 °C	2.3 °C	5.5 °C	–
Cc1nc(Nc2ncc(C(=O)Nc3c(C)cccc3Cl)s2)cc(N2CCN(CCO)CC2)n1	0.4 °C	0.5 °C	6.8 °C	1.2 °C	–	0.6 °C	-0.6 °C	0.2 °C	1.6 °C	0.4 °C	4.6 °C	0.3 °C	3.8 °C	0.9 °C
Clc1ccc(Nc2nnc(Cc3ccncc3)c3ccccc23)cc1	0.8 °C	0.5 °C	4 °C	-0.2 °C	–	0.4 °C	-0.7 °C	1.9 °C	-0.1 °C	0.1 °C	-0.5 °C	-0.2 °C	1.3 °C	-0.4 °C
COc1ccc(CNC(=O)Nc2ncc([N+](=O)[O-])s2)cc1	1.6 °C	0.4 °C	-0.3 °C	0.6 °C	0.4 °C	0.3 °C	0.7 °C	-0.1 °C	0.4 °C	0.7 °C	0.1 °C	1.1 °C	-0.9 °C	–
C[C@@H](N)[C@H]1CC[C@H](C(=O)Nc2ccncc2)CC1	-0.4 °C	-0.3 °C	-0.3 °C	0.4 °C	1.4 °C	-0.1 °C	0.1 °C	-0.1 °C	1.1 °C	2.1 °C	0.3 °C	0 °C	-0.4 °C	–
CC(C)(C)c1nc2c3ccc(F)cc3c3c(=O)[nH]ccc3c2[nH]1	3 °C	1.9 °C	-1.3 °C	0.8 °C	7.8 °C	0.3 °C	2.1 °C	4.8 °C	1.2 °C	4.3 °C	0.5 °C	3.7 °C	6.9 °C	–
CN[C@@H]1CC2O[C@@](C)([C@@H]1OC)n1c3ccccc3c3c4c(c5c6ccccc6n2c5c31)C(=O)NC4	6.9 °C	–	-0.7 °C	1.9 °C	17.9 °C	6.6 °C	12.4 °C	–	–	–	14.1 °C	–	1.9 °C	12.3 °C
Cc1ccc(NC(=O)c2ccc(CN3CCN(C)CC3)cc2)cc1Nc1nccc(-c2cccnc2)n1	0.7 °C	0.1 °C	-0.2 °C	0.3 °C	0.2 °C	0.3 °C	-0.6 °C	-0.5 °C	0.4 °C	–	0.6 °C	-0.1 °C	0.1 °C	2.1 °C
CN1CCC(Nc2ncc3ncnc(Nc4ccc(F)c(Cl)c4)c3n2)CC1 [FALNIDAMOL]	1.4 °C	0.5 °C	0.1 °C	0 °C	–	3.2 °C	2.5 °C	0.1 °C	1.5 °C	0.5 °C	1.4 °C	5.2 °C	0.5 °C	–
